The values below come from ChEMBL document CHEMBL5500384, “New synergistic benzoquinone scaffolds as inhibitors of mycobacterial cytochrome bc1 complex to treat multi-drug resistant tuberculosis” (Eur J Med Chem, 2024).

As a reminder, the LD50 is the dose expected to kill half of the subjects tested.

Data set [1] concerns Mycobacterium tuberculosis. Kind of data set: Antitubercular activity against Mycobacterium tuberculosis H37Rv assessed as effect on nucleoid morphology at 6.25 ug/ml by fluorescence microscopy analysis. Format: functional. Conditions: dose 6.25 µg/ml.
A short description of data set [2]: Acute toxicity in Albino mouse assessed as mortality at 300 mg/kg, po after 14 days. Format: organism-based. Conditions: in vivo, 336 h, time 14 day.
Data set [3] can be described thus: Acute toxicity in po dosed Albino mouse assessed as mortality after 14 days. It is filed as organism-based. Conditions: in vivo, time 14 day.
Data set [4] in a line: Acute toxicity in Albino mouse assessed as change in RBC count measured per million cells at 50 to 2000 mg/kg, po measured after 14 days (reference value: 9.15 microL). Conditions: in vivo, 336 h, dose 50-2000 mg/kg, time 14 day. It is filed as organism-based, Erythrocyte.
Data set [5] relates to Mycobacterium tuberculosis. Kind of data set: Antitubercular activity against Mycobacterium tuberculosis H37Rv assessed as effect on nucleoid morphology at 12.5 ug/ml by fluorescence microscopy analysis. It is filed as functional. Conditions: dose 12.5 µg/ml.
The nature of data set [6]: Acute toxicity in Albino mouse assessed as mortality at 300 mg/kg, po after 5 to 8 hrs. Format: organism-based. Conditions: in vivo, time 5-8 hrs.
Data set [7] is described as follows: Acute toxicity in Albino mouse assessed as mortality at 50 mg/kg, po after 14 days. Format: organism-based. Conditions: in vivo, 336 h, time 14 day.

Molecules are shown by their SMILES.

On to `CN(C)c1ccc(C2C(Cl)C(=O)N2C2=C(Cl)C(=O)c3ccccc3C2=O)cc1` (centres undefined), for which the Activity is reported as 99% in data set [1], “Non-Toxic” in data set [2] and 9.67 in data set [4]. In addition, the median lethal dose (LD50) at 336 h in data set [3] was 300 mg/kg.
Consider `COc1ccc(C2C(Cl)C(=O)N2C2=C(Cl)C(=O)c3ccccc3C2=O)cc1` (centres undefined), for which the Activity in data set [5] is reported as 99%; in data set [6] it was “Toxic”; in data set [7], “Non-Toxic”; in data set [4], 9.4. Also, the LD50 at 336 h in data set [3] is 50 mg/kg.
